Data published in article PMC7883873, “Discovery of New Catalytic Topoisomerase II Inhibitors for Anticancer Therapeutics” (Frontiers in Oncology, 2021).

Experiments:
full-length human TOP2A = molecular target: T1, full-length human TOP2A (Homo sapiens, UniProt P11388); test: EMSA with full-length protein; type: binding; conditions: 200 µM; 2 µM protein, 300 nM 5ZRF oligo
T1 construct: full-length human TOP2A and TOP2B protein (TopoGEN and Inspiralis respectively); purchased TopoGEN TG1001 (human TOP2 assay kit)
Description: (§1) EMSA followed the standard protocols as we and others described with minor modifications ([54]–[56]). The double-strand DNA oligo, 5ZRF (AGCCGAGCTGCAGCTCGGCT labeled by IRDye700) was purchased from IDT (Coralville, USA). Human TOP2 (431–1193), TOP2A (TopoGEN) or TOP2B (Inspiralis) proteins were incubated with 300 nM of 5ZRF oligo in a standard 20 µl EMSA reaction in a reaction buffer containing 20 mM HEPES-NaOH, pH 7.4, 2 mM DTT, 3 mM MgCl2, 0.05% NP-40, protease inhibitors, and 0.1 µg poly[dI:dC]. After incubation for 30 min at 37C, reactions were loaded onto 4% non-denatured polyacrylamide gel in 0.5× TBE buffer. The DNA oligo bands were visualized by using the Li-Cor Odyssey 9120 Infrared Imaging System.

full-length human TOP2B = molecular target: T2, full-length human TOP2B (Homo sapiens, UniProt Q02880); test: EMSA with full-length protein; type: binding; conditions: 200 µM; 2 µM protein, 300 nM 5ZRF oligo
T2 construct: full-length human TOP2A and TOP2B protein (TopoGEN and Inspiralis respectively); purchased Inspiralis HTB205
Description: as §1

K562 cells = test: Cell proliferation, MTS assay; type: cell-based; conditions: 0-20 µM, 0-72 h
Description: Cell proliferation rates were measured by using the CellTitre 96 AqueousOne kit (Promega) and bromodeoxyuridine (BrdU) assay kit (Millipore) according to the manufacturer’s protocol as we have described ([51]). Cytotoxicity was evaluated by using the commercial kit (CAT# 8078, ThermoFisher). Culture media was collected and used to measure lactate dehydrogenase (LDH) levels by a colorimetric method following the manufacture’s protocol (ThermoFisher). Cell cycling was assessed by using BrdU incorporation into S-phase DNA by using the APC BrdU flow kit (BD Pharmingen; Franklin Lakes, New Jersey) according to the manufacturer’s protocol. 1 mM of BrdU was added to cells and incubated for 6 h. Cells were incubated with anti-BrdU antibody and stained with 7-AAD before processing the cells for flow cytometry ([52]). Immunoblotting assays followed the standard protocol as we have reported ([51]–[53]).

HeLa cells = test: Confocal fluorescence microscopy; type: cell-based; conditions: 20 µM, 48 h
Description: Cells were fixed with 4% paraformaldehyde, treated in 0.25% Triton X-100 for 15 min, incubated with F-actin conjugated to Phalloidin-iFluor 488 (Abcam; UK), and mounted with DAPI staining mount (Vector Labs; Burlingame, USA). Cell images were captured by confocal microscopy at 63× magnification (Zeiss; Germany) ([51], [53]).

K562 xenografts = test: K562 xenografts, intra-tumor polymeric paste; type: in vivo, nude mice (Nu/Nu); conditions: single 30 µl paste, 1% T60 or T633, 0.3% etoposide
Description: The polymeric paste was prepared with 50% poly-DL-lactide-coglycolide (PLGA) and 50% PEG 300 (w/w) as we have reported ([57]). […] The density of the paste was determined to be 1.2 g/ml ( ± 3%). One million K562 cells were inoculated subcutaneously in bilateral flanks of nude mice (Nu/Nu). […] Tumor volumes were measured every three days and were calculated by length × width × depth × 0.5236. Mice were euthanized when tumor volumes reached 15% of body weight or weight loss >20% occurred. The remaining mice were euthanized after the control group was euthanized. All animal procedures were under the guidelines of the Canadian Council on Animal Care and were approved by the UBC Animal Care Committee (# A19-0256).

AR-v7 = test: Probasin- and PSA-luciferase reporter in 293T cells; type: cell-based; conditions: 0-20 µM
TOP2B [1] = molecular target: T3, TOP2B (Homo sapiens, UniProt Q02880); test: K-DNA decatenation assay; type: biochemical; design: full-length human TOP2A and TOP2B protein (TopoGEN and Inspiralis respectively); purchased Inspiralis HTB205; conditions: densitometry of D-DNA bands; read-out: IC50, inhibition of TOP2B K-DNA decatenation
Description: The human TOP2 assay kit (#TG1001, TopoGEN, Buena Vista, CO) and TOP2B (HTB205, Inspiralis, UK) were used for K-DNA decatenation assays. […] The reaction was incubated at 37C for 2 h after which 4 µl stop solution (5× buffer is 5% Sarkosyl, 0.125% bromophenol blue, 25% glycerol) was added. The reaction was resolved by electrophoresis on a 0.8% agarose gel at 60 V and stained with 0.5 µg/ml ethidium bromide for 15 min. DNA bands were visualized using a gel imager (Gel Doc™ EZ System) and quantified using the Image Studio™ Lite Quantification Software.

TOP2B [2] = molecular target: T3, TOP2B; test: DNA relaxation assay (supercoiled pHOT-1 plasmid); type: biochemical; design: full-length human TOP2A and TOP2B protein (TopoGEN and Inspiralis respectively); purchased Inspiralis HTB205; conditions: densitometry of SC bands; read-out: IC50, inhibition of TOP2B plasmid DNA relaxation
Description: The human TOP2A and TOP2B were used to perform DNA relaxation assays. […] The reaction was incubated at 37C for 2 h and stopped by adding 2 µl of 10% SDS and 1 µl of 250 mM of EDTA, followed by the addition of 50 µg/ml of proteinase K at 45 C for 1 h. The reaction was then resolved by electrophoresis on a 1% agarose gel at 80 V and stained with 0.5 µg/ml ethidium bromide for 15 min. DNA bands were visualized using a gel imager (Gel Doc™ EZ System) and quantified using the Image Studio™ Lite Quantification Software.

TOP2A = TOP2A (Homo sapiens, UniProt P11388); test: DNA cleavage assay; type: biochemical; design: full-length human TOP2A and TOP2B protein (TopoGEN and Inspiralis respectively); purchased TopoGEN TG1001 (human TOP2 assay kit); conditions: co-treatment with 200 µM etoposide; 1, 100, 200 µM
Description: The reactions were incubated in 37C for 30 min and stopped by adding 2 µl of 10% SDS and 1 µl of 250 mM of EDTA, followed by the addition of 50 µg/ml of proteinase K at 45C for 30 min. The reaction was then resolved by electrophoresis on a 1% agarose gel containing […] ethidium bromide in TAE buffer at 60 V. DNA bands were visualized using a gel imager (Gel Doc™ EZ System) and quantified by using the Image Studio™ Lite Quantification Software.

T3 sequence (Q02880 whole entry): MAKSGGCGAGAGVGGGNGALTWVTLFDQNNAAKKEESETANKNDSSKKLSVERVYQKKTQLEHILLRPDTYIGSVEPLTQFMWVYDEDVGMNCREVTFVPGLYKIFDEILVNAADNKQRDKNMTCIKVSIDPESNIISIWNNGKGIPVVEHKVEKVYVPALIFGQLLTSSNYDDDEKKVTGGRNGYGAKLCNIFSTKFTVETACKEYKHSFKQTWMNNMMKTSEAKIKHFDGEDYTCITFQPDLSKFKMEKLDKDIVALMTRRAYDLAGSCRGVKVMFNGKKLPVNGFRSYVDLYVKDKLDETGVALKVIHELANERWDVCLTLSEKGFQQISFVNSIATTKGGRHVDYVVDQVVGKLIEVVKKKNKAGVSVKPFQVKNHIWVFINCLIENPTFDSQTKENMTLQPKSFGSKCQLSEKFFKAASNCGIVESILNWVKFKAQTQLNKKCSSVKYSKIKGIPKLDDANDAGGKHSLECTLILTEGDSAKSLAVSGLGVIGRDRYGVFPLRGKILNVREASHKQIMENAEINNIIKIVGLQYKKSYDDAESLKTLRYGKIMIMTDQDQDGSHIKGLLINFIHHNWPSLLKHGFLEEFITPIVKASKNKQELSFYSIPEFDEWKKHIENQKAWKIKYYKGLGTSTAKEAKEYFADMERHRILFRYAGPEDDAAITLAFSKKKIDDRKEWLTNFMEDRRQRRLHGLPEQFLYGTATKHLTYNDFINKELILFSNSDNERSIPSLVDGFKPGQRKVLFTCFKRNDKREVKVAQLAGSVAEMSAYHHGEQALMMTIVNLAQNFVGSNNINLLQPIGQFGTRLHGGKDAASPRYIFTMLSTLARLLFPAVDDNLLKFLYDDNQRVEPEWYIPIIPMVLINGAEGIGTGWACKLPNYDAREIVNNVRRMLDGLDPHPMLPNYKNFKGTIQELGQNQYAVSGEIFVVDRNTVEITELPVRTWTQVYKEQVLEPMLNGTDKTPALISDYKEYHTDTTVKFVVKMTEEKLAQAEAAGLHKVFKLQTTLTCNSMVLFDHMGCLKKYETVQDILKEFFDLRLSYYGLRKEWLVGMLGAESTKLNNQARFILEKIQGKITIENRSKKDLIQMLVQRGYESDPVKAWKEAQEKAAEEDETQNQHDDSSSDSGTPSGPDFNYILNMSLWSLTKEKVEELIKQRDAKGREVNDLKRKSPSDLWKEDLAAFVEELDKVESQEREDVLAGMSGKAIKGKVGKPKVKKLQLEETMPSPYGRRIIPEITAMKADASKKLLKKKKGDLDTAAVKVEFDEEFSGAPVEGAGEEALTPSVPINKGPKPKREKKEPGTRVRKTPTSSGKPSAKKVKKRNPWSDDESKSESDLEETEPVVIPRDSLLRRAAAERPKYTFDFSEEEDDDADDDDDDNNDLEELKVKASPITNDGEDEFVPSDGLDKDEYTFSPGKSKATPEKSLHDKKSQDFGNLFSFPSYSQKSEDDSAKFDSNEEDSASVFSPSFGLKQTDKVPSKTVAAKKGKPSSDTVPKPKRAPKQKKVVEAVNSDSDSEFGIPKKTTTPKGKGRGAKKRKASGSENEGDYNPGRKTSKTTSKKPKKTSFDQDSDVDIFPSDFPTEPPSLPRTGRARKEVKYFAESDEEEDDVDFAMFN
T1 sequence (P11388 whole entry): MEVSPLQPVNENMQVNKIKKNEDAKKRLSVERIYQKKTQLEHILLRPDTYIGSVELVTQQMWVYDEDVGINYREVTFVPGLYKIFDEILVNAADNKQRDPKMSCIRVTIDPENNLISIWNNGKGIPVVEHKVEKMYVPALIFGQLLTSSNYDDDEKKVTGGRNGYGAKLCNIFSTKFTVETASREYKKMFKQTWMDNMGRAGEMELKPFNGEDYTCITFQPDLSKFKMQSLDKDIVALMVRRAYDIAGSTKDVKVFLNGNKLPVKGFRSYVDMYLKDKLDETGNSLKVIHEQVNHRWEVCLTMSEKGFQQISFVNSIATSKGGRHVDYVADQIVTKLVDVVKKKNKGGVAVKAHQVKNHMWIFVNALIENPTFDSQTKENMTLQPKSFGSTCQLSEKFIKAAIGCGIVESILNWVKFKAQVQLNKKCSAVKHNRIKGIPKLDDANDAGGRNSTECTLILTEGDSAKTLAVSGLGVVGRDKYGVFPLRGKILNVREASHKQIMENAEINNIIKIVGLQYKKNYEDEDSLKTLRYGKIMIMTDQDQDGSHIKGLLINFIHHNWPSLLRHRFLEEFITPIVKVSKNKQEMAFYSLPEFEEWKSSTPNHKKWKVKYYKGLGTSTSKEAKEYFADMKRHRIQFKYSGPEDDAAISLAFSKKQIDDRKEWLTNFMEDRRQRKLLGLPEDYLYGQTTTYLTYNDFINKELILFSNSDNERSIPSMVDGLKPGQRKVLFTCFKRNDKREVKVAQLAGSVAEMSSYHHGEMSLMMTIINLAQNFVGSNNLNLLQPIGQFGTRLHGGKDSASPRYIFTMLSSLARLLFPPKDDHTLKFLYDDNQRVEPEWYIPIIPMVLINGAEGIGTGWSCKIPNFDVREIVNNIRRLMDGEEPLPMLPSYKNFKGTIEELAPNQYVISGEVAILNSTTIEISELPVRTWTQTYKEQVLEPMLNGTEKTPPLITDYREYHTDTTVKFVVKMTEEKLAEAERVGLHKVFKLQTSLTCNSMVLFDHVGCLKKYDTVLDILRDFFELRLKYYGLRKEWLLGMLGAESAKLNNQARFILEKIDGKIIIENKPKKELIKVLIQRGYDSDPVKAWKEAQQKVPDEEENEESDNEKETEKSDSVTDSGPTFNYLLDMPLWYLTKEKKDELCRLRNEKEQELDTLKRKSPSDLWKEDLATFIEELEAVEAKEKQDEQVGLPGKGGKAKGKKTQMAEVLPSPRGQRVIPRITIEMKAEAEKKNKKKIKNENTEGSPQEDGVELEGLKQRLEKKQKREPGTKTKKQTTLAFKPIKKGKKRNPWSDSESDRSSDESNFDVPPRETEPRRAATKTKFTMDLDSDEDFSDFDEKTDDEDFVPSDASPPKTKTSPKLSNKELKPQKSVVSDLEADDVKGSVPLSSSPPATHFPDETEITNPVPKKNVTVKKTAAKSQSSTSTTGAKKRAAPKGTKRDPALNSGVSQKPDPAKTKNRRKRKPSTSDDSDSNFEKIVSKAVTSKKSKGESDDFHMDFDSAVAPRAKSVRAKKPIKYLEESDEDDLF
Chain of TOP2A (P11388 whole entry): as above
T2 sequence (Q02880 whole entry): as the sequence (Q02880 whole entry) above

O=C(Nc1ccc(Nc2ccccc2)cc1)c1ccc[nH]c1=S [T60]
Interruption of mobility retarded band, full-length TOP2A (full-length human TOP2A): interrupted | Interruption of mobility retarded band, full-length TOP2B (full-length human TOP2B): interrupted | K562 cell proliferation (K562 cells): inhibited K562 cell proliferation in a dose- and time-dependent manner | Cell morphology (HeLa cells): enlarged cell bodies and nuclei | Tumor growth at the end of two weeks (K562 xenografts): strongly inhibit tumor growth comparable to etoposide | Luciferase activities driven by probasin and PSA promoters, AR-v7 (AR-v7): inhibited luciferase activities | IC50 (TOP2B [1]): ~3 µM | IC50 (TOP2B [2]): ~8.9 µM | Prevention of etoposide-induced DNA cleavage, TOP2A (TOP2A): prevented
